Experimental findings from PubChem BioAssay AID743429 (Vanderbilt Specialized Chemistry Center, 2014) are described below.

Calls of active or inactive are those of the source. How the calls were made is not given here.

This experiment addresses Metabotropic glutamate receptor 1 (Homo sapiens) (UniProt Q13255). The experiment in a line: off-target activity check on mGlu1 receptor – cell-based, calcium fluorescence, agonist curve fold shift, selectivity assay for mGlu8/mGlu7 PAM project, profiling panel (AID 743429). As to conditions: mGlu1 cells, Fluo-4 calcium flux, at 10 µM.

Sequence of Metabotropic glutamate receptor 1 (Homo sapiens) (Q13255 whole entry, looked up): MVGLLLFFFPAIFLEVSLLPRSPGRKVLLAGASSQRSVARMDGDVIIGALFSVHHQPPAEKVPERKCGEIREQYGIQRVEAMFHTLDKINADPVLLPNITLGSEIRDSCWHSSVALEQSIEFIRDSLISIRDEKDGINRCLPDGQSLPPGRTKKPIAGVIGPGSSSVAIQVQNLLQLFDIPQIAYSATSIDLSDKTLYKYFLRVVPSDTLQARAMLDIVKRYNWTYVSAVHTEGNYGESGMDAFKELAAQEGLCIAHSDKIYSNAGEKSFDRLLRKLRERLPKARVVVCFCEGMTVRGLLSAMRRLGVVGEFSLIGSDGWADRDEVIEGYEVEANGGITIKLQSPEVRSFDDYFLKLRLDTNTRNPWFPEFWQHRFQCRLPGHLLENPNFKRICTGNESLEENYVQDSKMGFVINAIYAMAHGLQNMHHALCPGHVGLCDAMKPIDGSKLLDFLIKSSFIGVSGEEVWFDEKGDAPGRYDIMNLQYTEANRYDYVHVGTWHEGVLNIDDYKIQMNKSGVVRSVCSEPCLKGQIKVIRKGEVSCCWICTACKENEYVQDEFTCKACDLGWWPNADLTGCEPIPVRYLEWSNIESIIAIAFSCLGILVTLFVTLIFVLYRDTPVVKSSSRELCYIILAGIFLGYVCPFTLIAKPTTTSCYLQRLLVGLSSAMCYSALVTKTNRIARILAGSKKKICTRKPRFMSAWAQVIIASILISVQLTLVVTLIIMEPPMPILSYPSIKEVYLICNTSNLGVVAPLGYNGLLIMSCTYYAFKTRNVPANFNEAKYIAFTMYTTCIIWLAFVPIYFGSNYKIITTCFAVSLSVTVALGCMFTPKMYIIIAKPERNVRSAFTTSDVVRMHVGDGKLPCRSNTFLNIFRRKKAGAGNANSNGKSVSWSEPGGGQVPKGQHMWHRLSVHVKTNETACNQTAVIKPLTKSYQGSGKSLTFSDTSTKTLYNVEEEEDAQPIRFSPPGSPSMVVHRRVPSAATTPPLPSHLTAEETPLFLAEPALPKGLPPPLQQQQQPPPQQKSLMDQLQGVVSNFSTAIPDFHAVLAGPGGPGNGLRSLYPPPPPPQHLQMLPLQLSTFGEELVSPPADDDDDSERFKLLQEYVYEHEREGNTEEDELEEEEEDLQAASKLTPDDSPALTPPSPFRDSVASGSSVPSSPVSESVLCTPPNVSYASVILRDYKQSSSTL

With `COC(=O)c1ccc(-n2c(C)cc(C(=O)CSc3ccc(NC(C)=O)cc3)c2C)cc1`, the fold shift was 1.04 (inactive).
